A compilation of properties of binary mixtures (doi:10.1016/j.molliq.2016.08.084)

Test: xn = mol fraction of the nth substance listed
Details: 101 kPa

CCCC[n+]1ccn(C)c1.F[B-](F)(F)F + O
viscosity [mPa·s]
Details	293.15 K	298.15 K	303.15 K	313.15 K	323.15 K	333.15 K	343.15 K	353.15 K	363.15 K	373.15 K
x2 = 0	133.5	–	78.8	50.52	34.52	–	18.69	14.54	11.64	–
x2 = 0.034	–	88.8	69.8	45.58	31.56	22.98	17.44	13.67	–	9.06
x2 = 0.0615	–	–	–	41.37	–	21.4	16.34	12.87	–	–
x2 = 0.1135	81.4	–	51.7	–	25.01	–	14.45	–	9.39	7.83
x2 = 0.2063	56.3	45.4	37.2	26.09	19.17	14.66	11.59	9.4	7.79	6.6
x2 = 0.2802	42	34.4	28.7	20.59	15.49	12.06	9.64	7.91	–	5.71
x2 = 0.3977	–	–	19	14.1	10.89	8.67	7.11	–	5.16	4.54
